Test results as given in patent US20200246308A1, “SYNERGISTIC COMBINATIONS OF UROLITHINS A AND B FOR IMPROVING COGNITIVE CAPACITY OR COGNITIVE FUNCTION” (Natreon, Inc., priority 2018, published 2020).
Entries after “also recorded” stand apart in the source; their conditions may differ.

Tests used:
[1] = molecular target: T1, AchE from Electrophorus electricus (electric eel) (Electrophorus electricus, UniProt O42275); experiment: In-vitro AChE inhibition assay, Ellman method; assay type: biochemical
T1 construct: purchased Sigma Aldrich
Text: AchE from Electrophorus electricus (electric eel) CAS: 9000-81-1 was procured from Sigma Aldrich (St. Louis, Mo., USA). 5,5′-dithiobis (2-nitrobenzoic acid) (DTNB-Ellman's reagent) and acetylcholine iodide, (AChI) were procured from local suppliers (HiMedia, Pvt. Ltd., New Delhi, India). All other chemicals and reagents were available commercially from local suppliers (Merck Pvt. Ltd., New Delhi and HiMedia Laboratories Pvt Ltd., New Delhi, India) and were of analytical grade.
The procedure described by Ellman et al. was used after some modification for AChE inhibition assay. Acetylthiocholine iodide (ATCI), 5,5′-dithiobis (2-nitrobenzoic acid) (DTNB-Ellman's reagent) were purchased from Himedia. Donepezil was used as positive control. Tris-HCl buffer (pH 8) was used to perform the in-vitro assay. […] 50 μL of AChE (0.22 U mL^−1) and 10 μL of test or standard compounds were incubated in 96 well plate for 30 min. at room temperature (See, Table 3).
(§1) Further, substrate i.e. ATCI (15 mM, 30 μL) was added and it was incubated for additional 30 min. Finally 160 μL (1.5 mM) of DTNB was added and the absorbance was recorded at 415 nm using Epoch microplate reader (BioTek). The IC50 value was calculated using absorbance obtained from the test and standard compounds. The assay was performed in triplicate and in three independent runs.
Percentage inhibition=(Control−Test)/Control×100 Equation (1)
50 μL of AChE (0.22 U mL^−1) and 10 μL of test or standard compounds were incubated in 96 well plate for 30 min. at room temperature.
as §1, with “(see Equation 1).” for “and in three independent runs.”

[2] = molecular target: T2, Rat Acetylcholinesterase-induced β-Amyloid (Aβ1-40) Aggregation (Rattus norvegicus, UniProt P37136); experiment: Inhibition of AChE-induced β-amyloid peptide aggregation, ThT method; assay type: biochemical; conditions: test compounds 50 μM, B:A in μM, ThT fluorescence, 48 h
T2 sequence (P37136 32-614): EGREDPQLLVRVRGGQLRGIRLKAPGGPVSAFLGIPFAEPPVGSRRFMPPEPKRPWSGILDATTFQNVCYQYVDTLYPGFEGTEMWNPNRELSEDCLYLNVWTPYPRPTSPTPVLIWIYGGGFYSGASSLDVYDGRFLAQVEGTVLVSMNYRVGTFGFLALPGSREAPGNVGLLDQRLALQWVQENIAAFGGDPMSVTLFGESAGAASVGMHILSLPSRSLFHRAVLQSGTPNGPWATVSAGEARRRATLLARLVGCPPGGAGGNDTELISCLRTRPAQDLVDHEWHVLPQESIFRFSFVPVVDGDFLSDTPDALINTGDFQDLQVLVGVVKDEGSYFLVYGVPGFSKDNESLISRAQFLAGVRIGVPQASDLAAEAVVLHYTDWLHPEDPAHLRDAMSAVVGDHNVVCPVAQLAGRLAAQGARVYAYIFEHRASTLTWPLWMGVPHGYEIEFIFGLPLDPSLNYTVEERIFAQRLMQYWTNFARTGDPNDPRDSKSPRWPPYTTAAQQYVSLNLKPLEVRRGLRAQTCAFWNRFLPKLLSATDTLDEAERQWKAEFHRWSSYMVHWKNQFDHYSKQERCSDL
Description: Chemical reagents and starting materials were employed as above.
The effect of 3-OH-DBP (Urolithin B: B) and 3,8-(OH)2-DBP (Urolithin A: A) on the aggregation propensity of Aβ1-40 and (Thiofavin-T) ThT assay measurements were performed. […] Therefore, ThT assay was performed to study the effect of 3-(OH)-DBP (B) and 3,8-(OH)2-DBP (A) on the fibrillization of Aβ1-40.
The Aβ1-40 (10 μM and 30 μM) was incubated alone and independently with different concentrations of test compounds in the ratios shown in Tables 6 and 7, respectively.
2 μL of different concentrations of Aβ40 (10 and 30 μM) was incubated with 16 μL of AChE in the presence of different ratio of test compounds to obtain final concentrations of 30 or 10 μM Aβ40, […], 10, 20, 50 μM test compounds and 2 μL assay buffer ([…]). The mixture was incubated at room temperature for 24 or 48 hr in dark (Time period may be changed according to experiment).
Fluorescence intensities were obtained for Aβ40 aggregation in the presence of inhibitors, in the absence of inhibitors and the blanks or solvent control. After incubation, 178 μL of 20 μM ThT was added.
The percentage inhibition of the AChE-induced Aβ1-40 aggregation was calculated as follows.
Preparation of Aβ40Stock: Aβ40 peptide (0.25 mg) (Calbiochem, Merck) was dissolved in hexafluoro-2-propanol (HFIP, 0.2 mL) and incubated at room temperature for 1 h. HFIP was then removed by the flow of nitrogen and further dried under vacuum. The concentration of Aβ40 peptide was determined by UV-vis spectrometry (Biotek USA; Plate reader) using a molar extinction coefficient of 1450 cm^−1 M^−1 at 276 nm. HFIP-treated A1340 was then dissolved in 10 mM PBS buffer to a concentration of […] at pH 7.4. The assay was performed in triplicate and in three independent runs.

[3] = molecular target: T3, acetylcholinesterase activity in HIP homogenate (Rattus norvegicus, UniProt P37136); experiment: Acetylcholinesterase activity in hippocampal tissue, Amplex Red kit (Example 9C); assay type: in vivo, Male Wistar rats; conditions: p.o. 7 days: B 50, A 50, Donepezil 3, B:A 10:50 and 50:50 mg/kg, Shilajit 25 mg/kg b.i.d
T3 construct: The acetylcholinesterase activity in brain tissues was measured using Amplex red assay kit; from tissue; host or cells: rat hippocampus (brain tissue homogenate supernatant)
T3 sequence (P37136 32-614): T2 sequence (P37136 32-614)
Description: Drug solution was freshly prepared in 0.3% CMC and administered by oral gavage once a day, for a period of 7 days. Briefly, the whole experiment was conducted for 8 days. Scopolamine (1 mg/kg), a muscarinic receptor antagonist, was dissolved in normal saline (0.9% NaCl) and administered intraperitoneally 1 h after drugs administration on seventh day.
Sample preparation: The animals were killed by decapitation and the brain tissues were dissected out in ice-cold conditions and stored at −80° C. until use. Tissue was homogenized in 1.0 ml of 0.1M perchloric acid with a Potter-Elvehjem homogenizer. The homogenate was kept in the polypropylene tubes for 15 min after which 40 μl of 4M potassium acetate was added to adjust the pH to 4.0 followed by centrifugation for 15 min at 4000×g. Supernatant was used to estimate acetylcholine and AChE activities.
Spectrofluorometric assay of acetylcholinesterase activity: The acetylcholinesterase activity in brain tissues was measured using Amplex red assay kit (Molecular Probes, Inc., USA). An acetylcholinesterase standard curve was used in each experiment. Briefly, Begin the reactions by adding 0.1 ml of control (10 μM H2O2) and tissue homogenate were taken in two separate polypropylene tubes and then 0.1 ml working solution of 400 μM Amplex Red reagent containing 2 U/mL HRP, 0.2 U/mL choline oxidase and 100 μM acetylcholine were added to each tube. After incubation for 45 min, the fluorescence was recorded with the help of spectrofluorometer at 530 nm excitation and 590 nm emission wavelengths.
Statistical analyses: The results were expressed as means±Standard Error mean (SEM). The intergroup variation was measured by one-way ANOVA followed by Student-Newman-Keuls test. […] Statistical analysis was done by using Graph Pad prism version 5 (San Diego, Calif.). A level of p<0.05 was accepted as statistically significant.

[4] = Table 2, B:A ratios from mg/ml solutions
[5] = Table 5, Shilajit:B:A combinations from mg/ml solutions

T1 sequence (O42275 24-633): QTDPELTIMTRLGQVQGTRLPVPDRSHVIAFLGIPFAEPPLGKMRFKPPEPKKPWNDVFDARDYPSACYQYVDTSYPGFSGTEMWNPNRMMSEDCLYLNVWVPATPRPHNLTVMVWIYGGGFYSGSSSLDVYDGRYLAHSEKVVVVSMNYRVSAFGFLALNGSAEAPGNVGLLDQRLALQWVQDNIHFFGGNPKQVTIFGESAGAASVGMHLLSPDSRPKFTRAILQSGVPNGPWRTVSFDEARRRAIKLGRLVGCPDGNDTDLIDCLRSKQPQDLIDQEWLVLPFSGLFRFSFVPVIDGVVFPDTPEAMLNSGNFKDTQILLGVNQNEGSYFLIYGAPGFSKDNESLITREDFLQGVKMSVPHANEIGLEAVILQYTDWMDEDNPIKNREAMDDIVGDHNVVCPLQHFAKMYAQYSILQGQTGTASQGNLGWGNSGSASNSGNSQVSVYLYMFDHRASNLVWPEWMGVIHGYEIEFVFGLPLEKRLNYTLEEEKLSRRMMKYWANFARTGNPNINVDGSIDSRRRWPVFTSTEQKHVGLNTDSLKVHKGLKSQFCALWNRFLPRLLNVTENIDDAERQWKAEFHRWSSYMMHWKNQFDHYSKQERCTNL

Structure (SMILES) | IC50 [1, 4] [µg/mL] | IC50 [1, 5] [µg/mL] | inhibition of Aβ40 aggregation ([2]; Aβ40 30 μM) [%] | inhibition of Aβ40 aggregation ([2]; amyloid beta 10 μM) [%] | Scopolamine-induced increase in acetylcholinesterase activity in HIP homogenate [3] | Scopolamine-induced increase in acetylcholinesterase activity in HIP homogenate ([3]; listed as 3,8-(OH)2-DBP (A))
O=c1oc2cc(O)ccc2c2ccccc12 [Urolithin B, 3-hydroxy-dibenzo-alpha-pyrone] | 0.1430 ± 0.0057 | 0.1430 ± 0.0057 | ~41 | ~50 | attenuated the scopolamine induced increase acetylcholinesterase activity | –
O=c1oc2cc(O)ccc2c2ccc(O)cc12 [Urolithin A, 3,8-dihydroxy-dibenzo-alpha-pyrone] | 0.1793 ± 0.0092 | 0.1793 ± 0.0092 | ~32 | ~35 | – | attenuated the scopolamine induced increase acetylcholinesterase activity; also recorded: less effective than 3-OH-DBP (B) 50 mg/kg
